Test results reported in US8197860B2, “Method for enhancing nutrient absorption with astragalosides” (Nuliv Holding Inc., priority 2005, dated 2012).

Columns and labels:
Assay type in all cases: cell-based, human
[1] = test system: Caco2 cells; assay: Glucose uptake assay; design: key to * (regulatory effect on glucose uptake): ↑: the arrows that point up represent the enhancing effect on the glucose uptake; conditions: for Uptake rate (glucose): 48 hours, 25 mM glucose
Protocol: To evaluate the effect of the isolated astragaloside compound on the uptake of nutrient substances across the intestinal lumen, Caco-2 cells were grown on permeable filter as an experimental model. Caco2 cells originate from human colonic adenocarcinoma and spontaneously differentiate into an enterocyte-like phenotype after two weeks. The Caco-2 cell line, derived from a human colorectal carcinoma, has been used as an in vitro model system for studying drug absorption in gastrointestinal tract. These cells form monolayers with well-developed tight-junctions, and have been evaluated in details as an in vitro model to study both transcellular transport of nutrients and drugs in intestinal lumen.
Caco-2 cells were obtained from the ATCC (American Type Culture Collection). The cells were maintained in Dulbecco's modified Eagle medium (DMEM) containing 4.5 g/L glucose and 25 mM Hepes, supplemented with 10% fetal calf serum, 100 U/mL penicillin G and […]. The medium was changed every second day. The cells were routinely checked for Mycoplasma in monthly intervals. Caco-2 cells were cultured on semi-permeable membranes to differentiate into a highly functionalized epithelial barrier with remarkable morphological and biochemical similarity to the small intestinal columnar epithelium. The Caco-2 cell monolayers could therefore be used to study the membrane transport properties of many compounds. To trypsinize the cells, the culture dish was washed once with phosphate-buffered saline (PBS) followed by adding trypsine-EDTA for 10 minutes. The trypsinized cells were separated and filtered into single cells using a 35-μm strainer cap (Falcon 2235) before being seeded for further experiments.
Caco-2 cells (5×10^4) were seeded in a 48-well plate and maintained in culture medium (DMEM with 10% FBS, 1% nonessential amino acids, L-glutamine, penicillin G (100 U/mL), streptomycin (10 μg/mL), and amphotericin B (2.5 μg/mL) in a 37° C. incubator for 10 days for the cells to differentiate. The culture medium was changed once every two days. The cells were then washed with PBS before replenishing with the culture medium containing 5% FBS and various astragalosides at the indicated concentrations (0.01, 0.1 and 1 μM) for 48 hours. The Caco2 cells were washed out of remaining glucose with PBS and replaced in the glucose buffer (80 mM NaCl, 100 mM mannitol, 20 mM Tris-HCl, pH 7.4, 3 mM K2HPO4, 1 mM CaCl2, 1 mg/mL BSA) for 1 hour. Glucose uptake was initiated by replacing the glucose buffer with 0.2 ml of glucose buffer containing 2 μCi/mL of ^14C-glucose and unlabeled cold glucose to give a final glucose concentration of 25 mM. Glucose uptake was stopped by removing the glucose buffer and washing with PBS at designated time intervals. The cells were lysed in 0.2 mL of 0.2 N NaOH, and 20 μL of the cell lysate were transferred to the filter-bottomed UniFilter plates (Perkin-Elmer, Wellesley, Mass., USA) and dried in a vacuum oven at 37° C. The bottom of the UniFilter plate was sealed and 25 μL of the counting solution were added into each well. Adhesive plate sealers were used in place of the lids and radioactivity of each sample was counted using the microplate liquid scintillation counter (TopCount, Packard NXT, Packard BioScience Company, Meriden, Conn., USA). The amount of glucose accumulated in the cells was calculated and normalized to protein concentration, and uptake rate was expressed as nanomoles of glucose per minutes per milligram of cell protein (nmol/min/mg). Protein concentration was determined by a standard Bicinchoninic acid (BCA) protein assay. Nonspecific glucose uptake was measured by adding 2 μCi of L-[^14C]-glucose and subtracting from each determination to obtain specific glucose uptake.

[2] = test system: Caco-2 cell monolayer; assay: Tryptophan absorption assay (transport across Caco-2 cell monolayer); design: key to * (regulatory effect on tryptophan transport): ↑: the arrows that point up represent the enhancing effect on the tryptophan transport
How it was run: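 Differentiated Caco-2 monolayers on transwell filters were preincubated for 1 h at 37 °C in choline chloride-based buffer at pH 7.4. Transport began when apical tryptophan was added. Basolateral samples taken over time were counted, corrected for nonspecific flux using [3H]-mannitol, and expressed as nmol/min.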

[3] = test system: Caco2 cells; assay: Folate uptake assay; design: key to * (regulatory effect on folate uptake): ↑: the arrows that point up represent the enhancing effect on folate uptake; conditions: compound 0.1 μM
How it was run: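 Caco-2 cells differentiated 10 days, then pretreated 2 days with 0.1 μM isolated astragalosides in 5% FBS medium. Preincubated 1 h in HBSS-based folate uptake buffer pH 6.0; uptake started with 2 μCi/mL ³H-folic acid plus unlabeled folate.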

[4] = test system: Caco-2 cell monolayer; assay: Arginine absorption assay (transport across Caco-2 cell monolayer); design: key to * (regulatory effect on arginine transport): ↑: the arrows that point up represent the enhancing effect on the arginine transport; conditions: for Transport rate (arginine): 10 mM L-arginine apical
How it was run: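 Differentiated Caco-2 monolayers on transwells, preincubated 1 h at 37° C in pH 7.4 Hepes-buffered saline with glucose. Apical 10 mM L-arginine spiked with L-[3H]-arginine; basolateral radioactivity sampled over time. Transport corrected by [3H]-mannitol, expressed as nmol/min.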

SMILES: CC(C)(O)[C@@H]1CC[C@](C)([C@H]2[C@@H](O)C[C@@]3(C)[C@@H]4C[C@H](O[C@@H]5O[C@H](CO)[C@@H](O)[C@H](O)[C@H]5O)[C@H]5C(C)(C)[C@@H](O[C@@H]6OC[C@@H](O)[C@H](O)[C@H]6O)CC[C@@]56C[C@@]46CC[C@]23C)O1 [AS4, astragaloside IV]
- Glucose uptake rate versus control group ([1]; FIG. 1, selected concentrations): much higher glucose uptake rate than the control group
- Regulatory effects on the glucose uptake of the Caco2 cells ([1]; Table 2 summary): had regulatory effects on the glucose uptake
- * (regulatory effect on glucose uptake) ([1]; compound 0.01 μM): ↑
- Percentage (glucose uptake, control = 100) ([1]; compound 0.01 μM): 183.15%
- Uptake rate (glucose) ([1]; compound 0.01 μM): 11.670 ± 2.5800 nmol/mg/min
- * (regulatory effect on glucose uptake) ([1]; compound 0.1 μM): ↑
- Percentage (glucose uptake, control = 100) ([1]; compound 0.1 μM): 164.16%
- Uptake rate (glucose) ([1]; compound 0.1 μM): 10.460 ± 2.6690 nmol/mg/min
- * (regulatory effect on glucose uptake) ([1]; compound 1 μM): ↑
- Percentage (glucose uptake, control = 100) ([1]; compound 1 μM): 141.27%
- Uptake rate (glucose) ([1]; compound 1 μM): 9.0020 ± 1.8300 nmol/mg/min
- Regulatory effects on the tryptophan transport across the Caco2 cell monolayer ([2]; Table 4 summary): had regulatory effects on the tryptophan transport
- * (regulatory effect on tryptophan transport) ([2]; compound 0.01 μM): ↑
- Percentage (tryptophan transport, control = 100) ([2]; compound 0.01 μM): 113.29%
- Transport rate (tryptophan) ([2]; compound 0.01 μM): 10.130 ± 0.7025 nmol/min
- * (regulatory effect on tryptophan transport) ([2]; compound 0.1 μM): ↑
- Percentage (tryptophan transport, control = 100) ([2]; compound 0.1 μM): 142.36%
- Transport rate (tryptophan) ([2]; compound 0.1 μM): 12.730 ± 0.4470 nmol/min
- * (regulatory effect on tryptophan transport) ([2]; compound 1 μM): ↑
- Percentage (tryptophan transport, control = 100) ([2]; compound 1 μM): 108.07%
- Transport rate (tryptophan) ([2]; compound 1 μM): 9.6640 ± 0.2770 nmol/min
- Tryptophan transport rate ([2]; concentration from 0.01 μM to 1 mM): increased
- * (regulatory effect on folate uptake) [3]: ↑
- Percentage (folate uptake vs own control) [3]: 135.12%
- Uptake rate (folate) ([3]; 2 days, 5 μM folate, pH 6.0): 75.710 ± 5.2390 pmol/mg/min
- Regulatory effects on the arginine transport across the Caco2 cell monolayer ([4]; Table 3 summary): had regulatory effects on the arginine transport
- * (regulatory effect on arginine transport) ([4]; compound 0.01 μM): ↑
- Percentage (arginine transport, control = 100) ([4]; compound 0.01 μM): 156.52%
- Transport rate (arginine) ([4]; compound 0.01 μM): 16.7245 ± 0.2890 nmol/min
- * (regulatory effect on arginine transport) ([4]; compound 0.1 μM): ↑
- Percentage (arginine transport, control = 100) ([4]; compound 0.1 μM): 172.73%
- Transport rate (arginine) ([4]; compound 0.1 μM): 18.4575 ± 0.5955 nmol/min
- * (regulatory effect on arginine transport) ([4]; compound 1 μM): ↑
- Percentage (arginine transport, control = 100) ([4]; compound 1 μM): 161.19%
- Transport rate (arginine) ([4]; compound 1 μM): 17.2241 ± 0.3759 nmol/min
- Arginine transport rate ([4]; concentration from 0.01 μM to 1 μM): increased
